We go through one compound from patent publication US20080275018A1, “ANTIBACTERIAL AMIDE-MACROCYCLES V” (AiCuris GmbH & Co. KG, priority 2005, published 2008).

Where a name gives a salt, the structure may show the parent alone.

The test system of assay [1] is S. aureus 133. The assay is described as follows: Minimum inhibitory concentration (MIC), S. aureus 133. Format: cell-based, Staphylococcus aureus. Conditions: Staphylococcus aureus, 133, read-out: MIC S. aureus 133. As for the experimental part: (§1) The minimum inhibitory concentration (MIC) is the minimum concentration of an antibiotic with which the growth of a test microbe is inhibited over 18-24 h. The inhibitor concentration can in these cases be determined by standard microbiological methods (see, for example, The National Committee for Clinical Laboratory Standards. Methods for dilution antimicrobial susceptibility tests for bacteria that grow aerobically; approved standard-fifth edition. NCCLS document M7-A5 [ISBN 1-56238-394-9]. NCCLS, 940 West Valley Road, Suite 1400, Wayne, Pa. 19087-1898 USA, 2000). The test substances are thereby initially provided in 1:2 dilution series into 96-well round-bottom microtiter plates (Greiner) double-concentrated in 50 μl of test medium. The aerobically growing test microbes (e.g. staphylococci and enterococci), which are incubated overnight on Columbia blood agar plates (Becton-Dickinson), are, after resuspension in 0.9% NaCl, adjusted to a microbe count of about 5×10^7 microbes/ml and then diluted 1:150 in cation-adjusted MH medium (test medium). 50 μL of this suspension are pipetted onto the test preparations provided in the microtiter plates. The cultures are incubated at 37° C. for 18-24 hours. For microaerophilically growing microbes (e.g. streptococci), 2% lysed horse blood in the final concentration is added to the medium and the cultures are incubated in the presence of 5% CO2. The lowest substance concentration in each case at which no visible bacterial growth occurs any longer is defined as the MIC and is reported in μg/ml.
(§2) The minimum inhibitory concentration (MIC) is the minimum concentration of an antibiotic with which the growth of a test microbe is inhibited over 18-24 h. The inhibitor concentration can in these cases be determined by standard microbiological methods (see, for example, The National Committee for Clinical Laboratory Standards. Methods for dilution antimicrobial susceptibility tests for bacteria that grow aerobically; approved standard-fifth edition. NCCLS document M7-A5 [ISBN 1-56238-394-9]. NCCLS, 940 West Valley Road, Suite 1400, Wayne, Pa. 19087-1898 USA, 2000). The MIC of the compounds of the invention is determined in the liquid dilution test on the 96-well microtiter plate scale. The bacterial microbes are cultivated in a minimal medium (18.5 mM Na2HPO4, 5.7 mM KH2PO4, 9.3 mM NH4Cl, 2.8 mM MgSO4, 17.1 mM NaCl, 0.033 μg/ml thiamine hydrochloride, 1.2 μg/ml nicotinic acid, 0.003 μg/ml biotin, 1% glucose, 25 μg/ml of each proteinogenic amino acid with the exception of phenylalanine; [H.-P. Kroll; unpublished]) with the addition of 0.4% BH broth (test medium). In the case of Enterococcus faecium L4001, heat-inactivated fetal calf serum (FCS; GibcoBRL, Germany) is added to the test medium in a final concentration of 10%. Overnight cultures of the test microbes are diluted to an OD578 of 0.001 (to 0.01 in the case of enterococci) in fresh test medium, and incubated 1:1 with dilutions of the test substances (1:2 dilution steps) in test medium ([…]). The cultures are incubated at 37° C. for 18-24 hours; enterococci in the presence of 5% CO2.
(§3) The lowest substance concentration in each case at which no visible bacterial growth occurs any longer is defined as the MIC.
(§4) The minimum inhibitory concentration (MIC) is the minimum concentration of an antibiotic with which the growth of a test microbe is inhibited over 18-24 h. The inhibitor concentration can in these cases be determined by standard microbiological methods with modified medium in an agar dilution test (see, for example, The National Committee for Clinical Laboratory Standards. Methods for dilution antimicrobial susceptibility tests for bacteria that grow aerobically; approved standard-fifth edition. NCCLS document M7-A5 [ISBN 1-56238-394-9]. NCCLS, 940 West Valley Road, Suite 1400, Wayne, Pa. 19087-1898 USA, 2000). The bacterial microbes are cultivated on 1.5% agar plates which contain 20% defibrinated horse blood. […]

For assay [2], the system named is E. faecium L4001. The assay is described as follows: Minimum inhibitory concentration (MIC), E. faecium L4001. Particulars: Enterococcus faecium, L4001, read-out: MIC E. faecium L4001. The class given is cell-based, Enterococcus faecium. As for the experimental part: as §2, §3
In assay [3] the test system is S. aureus T17. The assay can be described thus: Minimum inhibitory concentration (MIC), biphenomycin-resistant S. aureus T17. The class given is cell-based, Staphylococcus aureus. Conditions: Staphylococcus aureus; biphenomycin-resistant S. aureus T17. As for the experimental part: as §1, §2, §3, §4
Assay [4] concerns the target S. aureus 133 Translation. The assay is described as follows: S. aureus in vitro transcription-translation assay (firefly luciferase, S30 extract). The class given is biochemical. Conditions: 50% inhibition of the translation of firefly luciferase. From the text:
For the construction of a reporter plasmid which can be used in an in vitro transcription-translation assay from S. aureus the plasmid pBESTluc (Promega Corporation, USA) is used. The E. coli tac promoter present in this plasmid in front of the firefly luciferase is replaced by the capA1 promoter with corresponding Shine-Dalgarno sequence from S. aureus. The primers CAPFor 5′-[…]-[…] GCCA-3′ and CAPRev 5′-[…]-3′ are used for this. The primer CAPFor contains the capA1 promoter, the ribosome binding site and the 5′ region of the luciferase gene. After PCR using pBESTluc as template it is possible to isolate a PCR product which contains the firefly luciferase gene with the fused capA1 promoter. This is, after restriction with ClaI and HindIII, ligated into the vector pBESTluc which has likewise been digested with ClaI and HindIII. The resulting plasmid pla can be replicated in E. coli and be used as template in the S. aureus in vitro transcription-translation test.
Six litres of BHI medium are inoculated with a 250 ml overnight culture of an S. aureus Strain and allowed to grow at 37° C. until the OD600 nm is 2-4. The cells are harvested by centrifugation and washed in 500 ml of cold buffer A (10 mM Tris acetate, pH 8.0, 14 mM magnesium acetate, 1 mM DTT, 1 M KCl). After renewed centrifugation, the cells are washed in 250 ml of cold buffer A with 50 mM KCl, and the resulting pellets are frozen at −20° C. for 60 min. The pellets are thawed on ice in 30 to 60 min and taken up to a total volume of 99 ml in buffer B (10 mM Tris acetate, pH 8.0, 20 mM magnesium acetate, 1 mM DTT, 50 mM KCl). 1.5 ml portions of lysostaphin (0.8 mg/ml) in buffer B are provided in 3 precooled centrifuge cups and each mixed with 33 ml of the cell suspension. The samples are incubated at 37° C., shaking occasionally, for 45 to 60 min, before 150 μl of a 0.5 M DTT solution are added. The lysed cells are centrifuged at 30 000×g and 4° C. for 30 min. The cell pellet is taken up in buffer B and then centrifuged again under the same conditions, and the collected supernatants are combined. The supernatants are centrifuged again under the same conditions, and 0.25 volumes of buffer C (670 mM Tris acetate, pH 8.0, 20 mM magnesium acetate, 7 mM Na3 phosphoenolpyruvate, 7 mM DTT, 5.5 mM ATP, 70 μM amino acids (complete from Promega), 75 μg of pyruvate kinase (Sigma, Germany)/ml are added to the upper ⅔ of the supernatant. The samples are incubated at 37° C. for 30 min. The supernatants are dialysed against 2 l of dialysis buffer (10 mM Tris acetate, pH 8.0, 14 mM magnesium acetate, 1 mM DTT, 60 mM potassium acetate) in a dialysis tube with a 3500 Da cut-off with one buffer change at 4° C. overnight. The dialysate is concentrated to a protein concentration of about 10 mg/ml by
covering the dialysis tube with cold PEG 8000 powder (Sigma, Germany) at 4° C. The S30 extracts can be stored in aliquots at −70° C.
The inhibition of protein biosynthesis of the compounds can be shown in an in vitro transcription-translation assay. The assay is based on the cell-free transcription and translation of firefly luciferase using the reporter plasmid pla as template and cell-free S30 extracts obtained from S. aureus. The activity of the resulting luciferase can be detected by luminescence measurement.
The amount of S30 extract or plasmid pla to be employed must be tested anew for each preparation in order to ensure an optimal concentration in the test. […] of the substance to be tested, dissolved in 5% DMSO, are introduced into an MTP. Then […] of a suitably concentrated plasmid solution pla are added. […]

Assay [5] concerns S. aureus 133. The assay can be described thus: Systemic infection with S. aureus 133 (mouse sepsis model). The class given is in vivo, mouse (female CFW1). Conditions: i.p. infection with S. aureus 133, i.v. therapy 30 minutes after infection, survival recorded for 6 days.
Experimental: For this purpose, S. aureus 133 cells are cultured overnight in BH broth (Oxoid, Germany). The overnight culture was diluted 1:100 in fresh BH broth and expanded for 3 hours. The bacteria which are in the logarithmic phase of growth are centrifuged and washed twice with a buffered physiological saline solution. A cell suspension in saline solution with an extinction of 50 units is then adjusted in a photometer (Dr Lange LP 2W). After a dilution step (1:15), this suspension is mixed 1:1 with a 10% mucine suspension. 0.2 ml of this infection solution is administered i.p. per 20 g of mouse. This corresponds to a cell count of about 1-2×10^6 microbes/mouse. The i.v. therapy takes place 30 minutes after the infection. Female CFW1 mice are used for the infection experiment. The survival of the animals is recorded for 6 days. The animal model is adjusted so that untreated animals die within 24 h after the infection.

One may read the MIC as the lowest concentration that inhibits growth of the organism. As a reminder, the IC50 is the concentration needed to halve the response being measured. `NCCC[C@H](N)CNC(=O)CNC(=O)[C@@H]1Cc2cccc(c2)-c2ccc(O)c(c2)C[C@H](N)C(=O)N[C@@H](C[C@@H](O)CN)C(=O)N1` [Example 2, (8S,11S,14S)-14-Amino-11-[(2R)-3-amino-2-hydroxypropyl]-N-(2-{[(2S)-2,5-diaminopentyl]-amino}-2-oxoethyl)-17-hydroxy-10,13-dioxo-9,12-diazatricyclo[14.3.1.1^2,6]henicosa-1(20),2(21),3,5,16,18-hexaene-8-carboxamide tetrahydrochloride]: the MIC in assay [1] was 1 µg/mL; in assay [2], 2 µg/mL; in assay [3], 1 µg/mL. Further, the IC50 in assay [4] was found to be 70 nM. In addition, in assay [5], the “therapeutic effect ED100” value was 1.25 mg/kg.
